Measurements reported in PubChem BioAssay AID1963867 (Molecular Pharmacology Branch, DTP, NCI, 2024).

System: KRAS-mutant PDC tumor spheroid with HUVEC/MSC, viability
Assay: Anticancer human tumor 327498-153-R-J2-PDC patient-derived uterine carcinosarcoma cell line growth inhibition [KRAS2]
Conditions: for IC50: curve of first compound; for viability, T/C: stronger effect = lower value
In short: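 KRAS-mutant tumor cells were grown as spheroids with HUVEC endothelial cells and human MSCs as stroma. Targeted agents were tested alone and with KRAS pathway inhibitors. Doses started at or near clinical Cmax, or 10 microM, descending half-log.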

[1] = second compound 0.1 µM, first compound 0.0316 µM
[2] = second compound 0.1 µM, first compound 0.1 µM
[3] = second compound 0.1 µM, first compound 0.316 µM
[4] = second compound 0.1 µM, first compound 1 µM
[5] = second compound 0.1 µM, first compound 3.16 µM
[6] = second compound 0.1 µM, first compound 10 µM
[7] = second compound 0.316 µM, first compound 0.0316 µM
[8] = second compound 0.316 µM, first compound 0.1 µM
[9] = second compound 0.316 µM, first compound 0.316 µM
[10] = second compound 0.316 µM, first compound 1 µM
[11] = second compound 0.316 µM, first compound 3.16 µM
[12] = second compound 0.316 µM, first compound 10 µM
[13] = second compound 1 µM, first compound 0.0316 µM
[14] = second compound 1 µM, first compound 0.1 µM
[15] = second compound 1 µM, first compound 0.316 µM
[16] = second compound 1 µM, first compound 1 µM
[17] = second compound 1 µM, first compound 3.16 µM
[18] = second compound 1 µM, first compound 10 µM
[19] = second compound 3.16 µM, first compound 0.0316 µM
[20] = second compound 3.16 µM, first compound 0.1 µM
[21] = second compound 3.16 µM, first compound 0.316 µM
[22] = second compound 3.16 µM, first compound 1 µM
[23] = second compound 3.16 µM, first compound 3.16 µM
[24] = second compound 3.16 µM, first compound 10 µM
[25] = second compound 10 µM, first compound 0.0316 µM
[26] = second compound 10 µM, first compound 0.1 µM
[27] = second compound 10 µM, first compound 0.316 µM
[28] = second compound 10 µM, first compound 1 µM
[29] = second compound 10 µM, first compound 3.16 µM
[30] = second compound 10 µM, first compound 10 µM
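Also: spheroids exposed to agents for seven days before reading.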
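For viability, T/C in this document: 100% = DMSO vehicle wells so lower means fewer viable cells.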

CC1OCC2(CCN(c3cnc(Sc4ccnc(N)c4Cl)c(N)n3)CC2)C1N (stereo not given) + C=CC(=O)N1CCN(c2nc(=O)n(-c3c(C)ccnc3C(C)C)c3nc(-c4c(O)cccc4F)c(F)cc23)C(C)C1
IC50 (second compound 0.1 µM): < 31.6 nM | IC50 (second compound 0.316 µM): < 31.6 nM | IC50 (second compound 1 µM): < 31.6 nM | IC50 (second compound 3.16 µM): < 31.6 nM | IC50 (second compound 10 µM): < 31.6 nM | viability, T/C [1]: 44.1% | viability, T/C [2]: 34.8% | viability, T/C [3]: 25.5% | viability, T/C [4]: 25.2% | viability, T/C [5]: 21% | viability, T/C [6]: 16.3% | viability, T/C [7]: 41.1% | viability, T/C [8]: 33.4% | viability, T/C [9]: 26.4% | viability, T/C [10]: 23.3% | viability, T/C [11]: 19.1% | viability, T/C [12]: 15.9% | viability, T/C [13]: 40.6% | viability, T/C [14]: 31.6% | viability, T/C [15]: 31.7% | viability, T/C [16]: 22.9% | viability, T/C [17]: 17.8% | viability, T/C [18]: 16.9% | viability, T/C [19]: 41.8% | viability, T/C [20]: 37.4% | viability, T/C [21]: 28.7% | viability, T/C [22]: 23.2% | viability, T/C [23]: 22.8% | viability, T/C [24]: 19.4% | viability, T/C [25]: 33.3% | viability, T/C [26]: 28% | viability, T/C [27]: 23.1% | viability, T/C [28]: 21.1% | viability, T/C [29]: 16.1% | viability, T/C [30]: 16.9%

Cn1nccc1Nc1nccc(-c2cc3c(s2)C(C)(C)N(CCN2CCOCC2)C3=O)n1 + C=CC(=O)N1CCN(c2nc(=O)n(-c3c(C)ccnc3C(C)C)c3nc(-c4c(O)cccc4F)c(F)cc23)C(C)C1
IC50 (second compound 0.1 µM): 1400 nM | IC50 (second compound 0.316 µM): 2240 nM | IC50 (second compound 1 µM): 3120 nM | IC50 (second compound 3.16 µM): 925 nM | IC50 (second compound 10 µM): < 31.6 nM | viability, T/C [1]: 60.7% | viability, T/C [2]: 61.5% | viability, T/C [3]: 55.8% | viability, T/C [4]: 54.8% | viability, T/C [5]: 41.8% | viability, T/C [6]: 36.5% | viability, T/C [7]: 55.7% | viability, T/C [8]: 63.8% | viability, T/C [9]: 55.1% | viability, T/C [10]: 54% | viability, T/C [11]: 46.6% | viability, T/C [12]: 42.2% | viability, T/C [13]: 63% | viability, T/C [14]: 56.3% | viability, T/C [15]: 60.9% | viability, T/C [16]: 55.2% | viability, T/C [17]: 49.1% | viability, T/C [18]: 42.4% | viability, T/C [19]: 60.5% | viability, T/C [20]: 59.3% | viability, T/C [21]: 50.8% | viability, T/C [22]: 49.6% | viability, T/C [23]: 48.3% | viability, T/C [24]: 40.5% | viability, T/C [25]: 49.9% | viability, T/C [26]: 47.8% | viability, T/C [27]: 45.3% | viability, T/C [28]: 37.7% | viability, T/C [29]: 41.1% | viability, T/C [30]: 29.3%

CC(=O)OC12COC1CC(O)C1(C)C(=O)C(O)C3=C(C)C(OC(=O)C(O)C(NC(=O)OC(C)(C)C)c4ccccc4)CC(O)(C(OC(=O)c4ccccc4)C21)C3(C)C (stereo not given) + C=CC(=O)N1CCN(c2nc(OCC3CCCN3C)nc3c2CCN(c2cccc4cccc(C)c24)C3)CC1CC#N
IC50 (second compound 0.0316 µM): < 10 nM | IC50 (second compound 0.1 µM): < 10 nM | IC50 (second compound 0.316 µM): < 10 nM | IC50 (second compound 1 µM): < 10 nM | IC50 (second compound 3.16 µM): < 10 nM | viability, T/C (second compound 0.0316 µM, first compound 0.01 µM): 6.75% | viability, T/C (second compound 0.0316 µM, first compound 0.0316 µM): 5.33% | viability, T/C (second compound 0.0316 µM, first compound 0.1 µM): 6.51% | viability, T/C (second compound 0.0316 µM, first compound 0.316 µM): 6.19% | viability, T/C (second compound 0.0316 µM, first compound 1 µM): 7.48% | viability, T/C (second compound 0.0316 µM, first compound 3.16 µM): 10.1% | viability, T/C (second compound 0.1 µM, first compound 0.01 µM): 5.53% | viability, T/C [1]: 4.17% | viability, T/C [2]: 3.96% | viability, T/C [3]: 4.52% | viability, T/C [4]: 6.93% | viability, T/C [5]: 8.74% | viability, T/C (second compound 0.316 µM, first compound 0.01 µM): 4.9% | viability, T/C [7]: 4.31% | viability, T/C [8]: 4.23% | viability, T/C [9]: 4.71% | viability, T/C [10]: 5.82% | viability, T/C [11]: 7.76% | viability, T/C (second compound 1 µM, first compound 0.01 µM): 4.4% | viability, T/C [13]: 3.43% | viability, T/C [14]: 3.95% | viability, T/C [15]: 3.86% | viability, T/C [16]: 5.54% | viability, T/C [17]: 4.84% | viability, T/C (second compound 3.16 µM, first compound 0.01 µM): 7.35% | viability, T/C [19]: 6.27% | viability, T/C [20]: 5.84% | viability, T/C [21]: 6.15% | viability, T/C [22]: 7.24% | viability, T/C [23]: 10.6%
